Laboratory results taken from patent publication US11000033B2, “Ketone or oxime compound, and herbicide” (NISSAN CHEMICAL CORPORATION, priority 2014, dated 2021).

Assays:
Assay type in all cases: in vivo
[1] = tested on: beet; test: Test Example 5: effect on crop by foliage application, plastic box (symbol f); settings: 320 g/ha, 3 weeks after application
In short: (§1)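 In a plastic box 7 cm deep filled with sterilized diluvial soil, seeds of crops and weeds such as Digitaria ciliaris, Avena fatua and Amaranthus retroflexus are sown in spots and covered with about 1.5 cm of soil before greenhouse growth at 25–30° C.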

[2] = tested on: Apera spica-venti; test: Test Example 5: herbicidal effect by foliage application, plastic box (symbol L); settings: 320 g/ha, 3 weeks after application
In short: (§2)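 Post-emergence spray; diluvial soil (sterilized), ~1.5 cm seed cover; greenhouse 25–30° C; 14-day-old plants; water-diluted emulsion at predetermined dose; visual score at 3 wk post-treatment.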

[3] = tested on: Avena fatua; test: Test Example 4: herbicidal effect by soil treatment (symbol I); settings: application herbicide amount 320 g/ha
In short: (§3)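 Seeds were sown in sterilized diluvial soil, covered with about 1.5 cm of soil, and the soil surface was sprayed with a water-diluted emulsion of the compound at a predetermined rate. Plants grew in a greenhouse at 25° C. to 30° C.; effects were scored visually 3 weeks after application.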

[4] = tested on: Avena fatua; test: Test Example 5: herbicidal effect by foliage application, plastic box (symbol I); settings: 320 g/ha, 3 weeks after application
In short: as §2

[5] = tested on: Setaria viridis; test: Test Example 4: herbicidal effect by soil treatment (symbol G); settings: application herbicide amount 320 g/ha
In short: as §3

[6] = tested on: Scirpus juncoides; test: Test Example 1: herbicidal activity, application before weed generation in submerged conditions (symbol B); settings: application herbicide amount 320 g/ha
In short: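 Greenhouse growth at 25–30 °C lasted 3 weeks after treatment, when each weed was graded 0–5 by herbicidal ratio. Treatment was a diluted emulsion applied to the water surface of 4 cm-submerged alluvial soil on the sowing day.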

[7] = tested on: Apera spica-venti; test: Test Example 4: herbicidal effect by soil treatment (symbol L); settings: application herbicide amount 320 g/ha
In short: as §3

[8] = tested on: Veronica persica; test: Test Example 5: herbicidal effect by foliage application, plastic box (symbol R); settings: 320 g/ha, 3 weeks after application
In short: as §2

[9] = tested on: Stellaria media; test: Test Example 5: herbicidal effect by foliage application, plastic box (symbol P); settings: 320 g/ha, 3 weeks after application
In short: as §2

[10] = tested on: Chenopodium album; test: Test Example 5: herbicidal effect by foliage application, plastic box (symbol O); settings: 320 g/ha, 3 weeks after application
In short: as §2

[11] = tested on: rapeseed; test: Test Example 5: effect on crop by foliage application, plastic box (symbol g); settings: 320 g/ha, 3 weeks after application
In short: as §1

[12] = tested on: Amaranthus retroflexus; test: Test Example 4: herbicidal effect by soil treatment (symbol N); settings: application herbicide amount 320 g/ha
In short: as §3

[13] = tested on: Abutilon theophrasti; test: Test Example 5: herbicidal effect by foliage application, plastic box (symbol M); settings: 320 g/ha, 3 weeks after application
In short: as §2

[14] = tested on: Digitaria ciliaris; test: Test Example 5: herbicidal effect by foliage application, plastic box (symbol F); settings: 320 g/ha, 3 weeks after application
In short: as §2

[15] = tested on: Leptochloa chinensis; test: Test Example 3: herbicidal effect by foliage application, Wagner pot (symbol D); settings: application herbicide amount 320 g/ha
In short: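 Steps: fill pot with alluvial soil; add water to 0.1–0.5 cm depth; sow weed and rice seed; grow 14 days at 25–30 °C; spray diluted emulsion over the leaves; rate effect after 3 weeks.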

[16] = tested on: Echinochloa crus-galli var. crus-galli; test: Test Example 5: herbicidal effect by foliage application, plastic box (symbol H); settings: 320 g/ha, 3 weeks after application
In short: as §2

[17] = tested on: soybean; test: Test Example 4: effect on crop by soil treatment (symbol d); settings: application herbicide amount 320 g/ha
In short: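 Plants are raised in a greenhouse (25° C. to 30° C.) from spot-sown seed, which sits under about 1.5 cm of sterilized diluvial soil in a box shared with weed species.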

[18] = tested on: Galium spurium; test: Test Example 4: herbicidal effect by soil treatment (symbol Q); settings: application herbicide amount 320 g/ha
In short: as §3

Row | SMILES | f: beet, effect on crop (criteria of Test Example 1) [1] | L: Apera spica-venti, herbicidal effect (criteria of Test Example 1) [2] | Herbicidal effect grade, I: Avena fatua [3] | I: Avena fatua, herbicidal effect (criteria of Test Example 1) [4] | Herbicidal effect grade, G: Setaria viridis [5] | Herbicidal effect grade, B: Scirpus juncoides [6] | Herbicidal effect grade, L: Apera spica-venti [7] | R: Veronica persica, herbicidal effect (criteria of Test Example 1) [8] | P: Stellaria media, herbicidal effect (criteria of Test Example 1) [9] | O: Chenopodium album, herbicidal effect (criteria of Test Example 1) [10] | g: rapeseed, effect on crop (criteria of Test Example 1) [11] | Herbicidal effect grade, N: Amaranthus retroflexus [12] | M: Abutilon theophrasti, herbicidal effect (criteria of Test Example 1) [13] | F: Digitaria ciliaris, herbicidal effect (criteria of Test Example 1) [14] | herbicidal effect on D (Leptochloa chinensis), grade 0-5 [15] | H: Echinochloa crus-galli var. crus-galli, herbicidal effect (criteria of Test Example 1) [16] | Effect on crop grade, d: soybean [17] | Herbicidal effect grade, Q: Galium spurium [18] | also measured
1 | CC(=O)CC1CC(O)=C(c2c(C)cc(Oc3ccc(C(F)(F)F)cn3)cc2C)C1=O (stereo not drawn) [7-019] | 0 (Herbicidal ratio of 5% or lower (almost no effect)) | 3 (Herbicidal ratio of 40% or higher and lower than 70%) | 0 (Herbicidal ratio of 5% or lower (almost no effect)) | 0 (Herbicidal ratio of 5% or lower (almost no effect)) | 2 (Herbicidal ratio of 20% or higher and lower than 40%) | 0 (Herbicidal ratio of 5% or lower (almost no effect)) | 0 (Herbicidal ratio of 5% or lower (almost no effect)) | 0 (Herbicidal ratio of 5% or lower (almost no effect)) | 0 (Herbicidal ratio of 5% or lower (almost no effect)) | 0 (Herbicidal ratio of 5% or lower (almost no effect)) | 2 (Herbicidal ratio of 20% or higher and lower than 40%) | 0 (Herbicidal ratio of 5% or lower (almost no effect)) | 0 (Herbicidal ratio of 5% or lower (almost no effect)) | 3 (Herbicidal ratio of 40% or higher and lower than 70%) | 4 (Herbicidal ratio of 70% or higher and lower than 90%) | 4 (Herbicidal ratio of 70% or higher and lower than 90%) | 0 (Herbicidal ratio of 5% or lower (almost no effect)) | 0 (Herbicidal ratio of 5% or lower (almost no effect)) | 
2 | CCc1cc(-c2ccc(Cl)cc2)cc(C)c1C1=C(OC(=O)N2CCOCC2)CC(CC(C)=NOC)C1=O (mixture of isomers) [6-064] | 0 (Herbicidal ratio of 5% or lower (almost no effect)) | 5 (Herbicidal ratio of 90% or more (almost completely withered)) |  | 5 (Herbicidal ratio of 90% or more (almost completely withered)) |  | 0 (Herbicidal ratio of 5% or lower (almost no effect)) |  | 4 (Herbicidal ratio of 70% or higher and lower than 90%) | 0 (Herbicidal ratio of 5% or lower (almost no effect)) |  | 3 (Herbicidal ratio of 40% or higher and lower than 70%) |  | 4 (Herbicidal ratio of 70% or higher and lower than 90%) | 5 (Herbicidal ratio of 90% or more (almost completely withered)) | 5 (Herbicidal ratio of 90% or more (almost completely withered)) | 5 (Herbicidal ratio of 90% or more (almost completely withered)) |  |  | I: Avena fatua, herbicidal effect grade [3]: 0 (Herbicidal ratio of 5% or lower (almost no effect)); G: Setaria viridis, herbicidal effect grade [5]: 5 (Herbicidal ratio of 90% or more (almost completely withered)); L: Apera spica-venti, herbicidal effect grade [7]: 5 (Herbicidal ratio of 90% or more (almost completely withered)); N: Amaranthus retroflexus, herbicidal effect grade [12]: 0 (Herbicidal ratio of 5% or lower (almost no effect)); d: soybean, effect on crop grade [17]: 0 (Herbicidal ratio of 5% or lower (almost no effect)); Q: Galium spurium, herbicidal effect grade [18]: 0 (Herbicidal ratio of 5% or lower (almost no effect))
3 | CC(=O)CC1CC(O)=C(c2c(C)cc(-c3ccccn3)cc2C)C1=O (stereo not drawn) [7-012] | 0 (Herbicidal ratio of 5% or lower (almost no effect)) | 0 (Herbicidal ratio of 5% or lower (almost no effect)) | 0 (Herbicidal ratio of 5% or lower (almost no effect)) | 1 (Herbicidal ratio of 5% or higher and lower than 20%) | 5 (Herbicidal ratio of 90% or more (almost completely withered)) | 0 (Herbicidal ratio of 5% or lower (almost no effect)) | 0 (Herbicidal ratio of 5% or lower (almost no effect)) | 2 (Herbicidal ratio of 20% or higher and lower than 40%) | 3 (Herbicidal ratio of 40% or higher and lower than 70%) | 3 (Herbicidal ratio of 40% or higher and lower than 70%) | 3 (Herbicidal ratio of 40% or higher and lower than 70%) | 0 (Herbicidal ratio of 5% or lower (almost no effect)) | 0 (Herbicidal ratio of 5% or lower (almost no effect)) | 5 (Herbicidal ratio of 90% or more (almost completely withered)) | 5 (Herbicidal ratio of 90% or more (almost completely withered)) | 5 (Herbicidal ratio of 90% or more (almost completely withered)) | 0 (Herbicidal ratio of 5% or lower (almost no effect)) | 0 (Herbicidal ratio of 5% or lower (almost no effect)) | 
4 | CCc1cc(Br)cc(C)c1C1=C(O)CC(C(C(C)=O)C(=O)OC)C1=O (stereo not drawn) [7-001] | 0 (Herbicidal ratio of 5% or lower (almost no effect)) | 3 (Herbicidal ratio of 40% or higher and lower than 70%) | 3 (Herbicidal ratio of 40% or higher and lower than 70%) | 3 (Herbicidal ratio of 40% or higher and lower than 70%) | 4 (Herbicidal ratio of 70% or higher and lower than 90%) | 0 (Herbicidal ratio of 5% or lower (almost no effect)) | 0 (Herbicidal ratio of 5% or lower (almost no effect)) | 0 (Herbicidal ratio of 5% or lower (almost no effect)) |  |  | 0 (Herbicidal ratio of 5% or lower (almost no effect)) | 0 (Herbicidal ratio of 5% or lower (almost no effect)) | 0 (Herbicidal ratio of 5% or lower (almost no effect)) | 5 (Herbicidal ratio of 90% or more (almost completely withered)) | 5 (Herbicidal ratio of 90% or more (almost completely withered)) | 4 (Herbicidal ratio of 70% or higher and lower than 90%) | 0 (Herbicidal ratio of 5% or lower (almost no effect)) | 0 (Herbicidal ratio of 5% or lower (almost no effect)) | 
